Measured values published in patent publication US9181318B2, “Method of screening a drug such as insulin secretagogue” (JNC Corporation, priority 2009, dated 2015).

Test system: insulin-GLase-expressed MIN6 cells (mouse pancreatic β cells)
Assay: Secretion of insulin-GLase fusion protein from transformed MIN6 cells, luminescence (luciferase) activity in the medium
Format: cell-based
Details: glibenclamide in low glucose-modified KRHB buffer; aliquots taken 0-30 minutes; control 2 mM glucose; FIG. 9
Procedure: Mouse pancreatic β cells, MIN6 strains, were cultured in high glucose DMEM (manufactured by Sigma) supplemented with 10% fetal calf serum (manufactured by Invitrogen) and 50 μM of 2-mercaptoethanol. The expression vector obtained in EXAMPLE 1-1 was transfected to the MIN6 cell line using LipofectAMINE 2000 (manufactured by Invitrogen). After the transfection, the cells were incubated in a CO2 incubator at 37° C. for 24 hours. The secretion expression of the fusion Gaussia luciferase protein in the transformant was confirmed by measuring the luminescence activity with a Luminometer AB2200 (manufactured by Atto Corporation) using coelenterazine as a luminescent substrate, in accordance with the method described in Biochem. Biophys. Res. Commun., 365, 96-101 (2007). As a result, the luminescence activity in the cultured medium by high glucose (20 mM glucose) stimulation to the transformed MIN6 cells increased by about 7 times as compared to that prior to the treatment (FIG. 1). […] Glibenclamide, which is a sulfonylurea type hypoglycemic agent, promotes the secretion of endogenous insulin to lower blood glucose levels. This promotion of insulin secretion was examined using the insulin-GLase-expressed MIN6 cells to assess the effect. […]

SMILES: COc1ccc(Cl)cc1C(=O)NCCc1ccc(S(=O)(=O)NC(=O)NC2CCCCC2)cc1 [glibenclamide, Glibenclamide]
- insulin secretion (luciferase activity of secreted insulin-GLase): promoted
